What was measured:
[1] = tested on: non-responder CD4+ T cells; experiment: Proliferation of anti-CD3 stimulated GABA non-responder CD4+ T cells from ND individuals; format: cell-based, human
Method: (§1) Peripheral Blood Mononuclear cells (PBMCs) are isolated from blood from donors diagnosed with Type-1 diabetes and healthy controls. Alternatively, CD4-positive cells (T-cells) are further isolated from PBMCs by e.g. MACS beads, FACS or similar technology. […] A reasonable replication, such as 3 cultures of each condition, is performed. A normalized proliferation value for each culture is then calculated by a standard proliferation measurement method, such as by CFSE staining or radioactive thymidine incorporation (requiring additional factors be added during culture) or by staining for proliferation markers.
(§2) In the FIG. 1, the proliferation of cells retrieved from 13 T1D subjects and 15 healthy controls were inspected. […] A normalized proliferation index was calculated for each culture.
The proliferation of freshly isolated human PBMCs or CD4^+ T cells was evaluated with MTT (3-(4,5-Dimethylthiazol-2-yl)-2,5-Diphenyltetrazolium Bromide) assay (Ring et al., 2012). Cells were suspended in complete medium (RPMI 1640 supplemented with 2 mM glutamine, 25 mM HEPES, 10% heat inactivated fetal bovine serum, 100 U/ml penicillin, 10 mg/ml streptomycin, 5 mM R-mercaptoethanol) in a concentration 1 million cells per milliliter. […] The formazan crystal pellet was dissolved in DMSO and the plate was read within 10 min using a Multiskan MS plate reader (Labsystems) at 550 nm. […]

[2] = tested on: PBMCs from T1D individuals; experiment: Proliferation of anti-CD3 stimulated PBMCs from T1D donors; format: cell-based, human; conditions: Example 1, FIG. 1D; PBMCs from all 13 T1D donors; 100 nM GABA
Method: as §1, §2
The proliferation of freshly isolated human PBMCs or CD4^+ T cells was evaluated with MTT (3-(4,5-Dimethylthiazol-2-yl)-2,5-Diphenyltetrazolium Bromide) assay (Ring et al., 2012). Cells were suspended in complete medium (RPMI 1640 supplemented with 2 mM glutamine, 25 mM HEPES, 10% heat inactivated fetal bovine serum, 100 U/ml penicillin, 10 mg/ml streptomycin, 5 mM R-mercaptoethanol) in a concentration 1 million cells per milliliter. The assay was performed in 96-well plates in duplicates or triplicates, where each well was pre-coated with 3 μg/ml anti-CD3 antibody for 3-5 h at 37° C. Each well was loaded with 100,000 cells. Drugs were added to the wells at the relevant concentrations. The plate was incubated for 68 h at 37° C. (95% O2, 5% CO2) and then, a media-soluble tetrazolium dye MTT was added to a final concentration of 1 mM after which the plate was incubated for additional 4 h. The plate was then centrifuged at 2,000 RPM for 10 min to pellet the insoluble purple formazan crystals. The supernatant culture media was collected, stored at −80° C. and used for analysis of cytokines using the multiplex proximity extension assay (PEA). The formazan crystal pellet was dissolved in DMSO and the plate was read within 10 min using a Multiskan MS plate reader (Labsystems) at 550 nm. […]

responder CD4+ T cells = experiment: Proliferation of anti-CD3 stimulated GABA responder CD4+ T cells from ND individuals; format: cell-based, human; conditions: Example 1, FIG. 1B; CD4-positive cells from 10 healthy donors; 100 nM GABA
Method: as §1, §2
(§3) The proliferation of freshly isolated human PBMCs or CD4^+ T cells was evaluated with MTT (3-(4,5-Dimethylthiazol-2-yl)-2,5-Diphenyltetrazolium Bromide) assay (Ring et al., 2012). Cells were suspended in complete medium (RPMI 1640 supplemented with 2 mM glutamine, 25 mM HEPES, 10% heat inactivated fetal bovine serum, 100 U/ml penicillin, 10 mg/ml streptomycin, 5 mM R-mercaptoethanol) in a concentration 1 million cells per milliliter. The assay was performed in 96-well plates in duplicates or triplicates, where each well was pre-coated with 3 μg/ml anti-CD3 antibody for 3-5 h at 37° C. Each well was loaded with 100,000 cells. Drugs were added to the wells at the relevant concentrations. The plate was incubated for 68 h at 37° C. (95% O2, 5% CO2) and then, a media-soluble tetrazolium dye MTT was added to a final concentration of 1 mM after which the plate was incubated for additional 4 h. The plate was then centrifuged at 2,000 RPM for 10 min to pellet the insoluble purple formazan crystals. The supernatant culture media was collected, stored at −80° C. and used for analysis of cytokines using the multiplex proximity extension assay (PEA). The formazan crystal pellet was dissolved in DMSO and the plate was read within 10 min using a Multiskan MS plate reader (Labsystems) at 550 nm. The optical density value was used as the proliferation index value. Drugs were purchased from Sigma-Aldrich or Tocris (Bristol, UK).

[3] = tested on: PBMCs from nondiabetic (ND) individuals; conditions: GABA 100 nM, normalized to control
Method: as §3
(§4) Plasma samples, and culture media samples that were collected from plate wells at the end of the proliferation assay, were analyzed by multiplex PEA with an Olink Inflammation […] panel, targeting 92 proteins related to inflammation (Olink Proteomics, Uppsala, Sweden) as previously described (Edvinsson et al., 2017, Assarsson et al., 2014, Larsson et al., 2015, Larssen et al., 2017). Briefly, 1 μl of sample (plasma samples or cell culture media samples) or negative control was mixed with 3 μl probe solution containing a set of 92 paires DNA-oligonucleotide-conjugated antibodies. Upon recognition of a target protein by a pair of probes, the DNA oligonucletodies on the antibodies are brought in proximity and hybridize to each other, followed by enzymatic DNA polymerization to form a new DNA molecule. The newly formed DNA molecule is then amplified and quantified using a microfluidic real-time qPCR, BioMark™ HD (Fluidigm, South San Francisco, Calif., USA). The generated quantification cycle (Cq) values are normalized against spiked-in controls to convert Cq values to Normalized Protein eXpression (NPX) value on log2 scale. NPX is an arbitrary unit, which is positively correlated to protein concentration. These NPX data were then converted to linear data, using the formula 2^NPX, prior to further statistical analysis. Limit of detection (LOD) for each protein was defined as three standard deviations above the background. Proteins with levels below LOD were excluded from further data analysis.

[4] = tested on: PBMCs from type 1 diabetic (T1D) patients; conditions: GABA 100 nM
Method: as §3, §4

[5] = T1D PBMCs, normalized to control

NCCCC(=O)O [GABA, gamma-aminobutyric acid]
proliferation in the presence of GABA ([1]; Example 1, FIG. 1A, CD4-positive cells from 5 healthy donors, 100 nM GABA): did not proliferate less | decrease of proliferation by GABA ([1]; Example 2, non-responder T cell population): did not decrease | proliferation in the presence of GABA [2]: proliferated less | proliferation in the presence of GABA (responder CD4+ T cells): did proliferate less | AXIN1 in culture medium, % Mean [3]: 82.3% | CCL4 in culture medium, % Mean [3]: 95.3% | CD244 in culture medium, % Mean [3]: 92.5% | CXCL9 in culture medium, % Mean [3]: 81.3% | IL-12B in culture medium, % Mean [3]: 84.8% | IL-18R1 in culture medium, % Mean [3]: 90.7% | LIF in culture medium, % Mean [3]: 88.5% | OPG in culture medium, % Mean [3]: 81.8% | OSM in culture medium, % Mean [3]: 88.1% | PD-L1 in culture medium, % Mean [3]: 87.8% | SIRT2 in culture medium, % Mean [3]: 81.6% | TNF in culture medium, % Mean [3]: 74.1% | TNFB in culture medium, % Mean [3]: 95.7% | TNFRSF9 in culture medium, % Mean [3]: 99.6% | TNFSF14 in culture medium, % Mean [3]: 89.2% | TWEAK in culture medium, % Mean [3]: 86.3% | 4E-BP1 in culture medium, % Mean [4, 5]: 45.5% | ADA in culture medium, % Mean [4, 5]: 53.4% | AXIN1 in culture medium, % Mean [4, 5]: 62.8% | CASP-8 in culture medium, % Mean [4, 5]: 60.9% | CCL4 in culture medium, % Mean [4, 5]: 85.1% | CCL19 in culture medium, % Mean [4, 5]: 43.8% | CCL20 in culture medium, % Mean [4, 5]: 31.5% | CD244 in culture medium, % Mean [4, 5]: 76.3% | CSF-1 in culture medium, % Mean [4, 5]: 70.5% | CXCL1 in culture medium, % Mean [4, 5]: 52.6% | CXCL5 in culture medium, % Mean [4, 5]: 68.1% | CXCL6 in culture medium, % Mean [4, 5]: 54.0% | CXCL9 in culture medium, % Mean [4, 5]: 45.5% | CXCL10 in culture medium, % Mean [4, 5]: 42.5% | CXCL11 in culture medium, % Mean [4, 5]: 61.4% | EN-RAGE in culture medium, % Mean [4, 5]: 71.1% | Flt3L in culture medium, % Mean [4, 5]: 62.9% | IL-1 alpha in culture medium, % Mean [4, 5]: 43.5% | IL-2RB in culture medium, % Mean [4, 5]: 73.0% | IL-4 in culture medium, % Mean [4, 5]: 117.0% | IL-5 in culture medium, % Mean [4, 5]: 85.3% | IL-6 in culture medium, % Mean [4, 5]: 49.4% | IL-10 in culture medium, % Mean [4, 5]: 61.4% | IL-12B in culture medium, % Mean [4, 5]: 53.3% | IL-13 in culture medium, % Mean [4, 5]: 53.0% | IL-17A in culture medium, % Mean [4, 5]: 58.9% | IL-18R1 in culture medium, % Mean [4, 5]: 63.3% | IL-24 in culture medium, % Mean [4, 5]: 86.9% | LAP TGF-beta-1 in culture medium, % Mean [4, 5]: 67.6% | LIF in culture medium, % Mean [4, 5]: 70.0% | MCP-1 in culture medium, % Mean [4, 5]: 53.0% | MCP-2 in culture medium, % Mean [4, 5]: 35.4% | MCP-3 in culture medium, % Mean [4, 5]: 44.6% | MIP-1 alpha in culture medium, % Mean [4, 5]: 106.2% | MMP-1 in culture medium, % Mean [4, 5]: 78.4% | MMP-10 in culture medium, % Mean [4, 5]: 61.3% | OPG in culture medium, % Mean [4, 5]: 45.1% | OSM in culture medium, % Mean [4, 5]: 69.8% | PD-L1 in culture medium, % Mean [4, 5]: 57.0% | SIRT2 in culture medium, % Mean [4, 5]: 53.5% | STAMP8 in culture medium, % Mean [4, 5]: 53.9% | TGFA in culture medium, % Mean [4, 5]: 61.1% | TNF in culture medium, % Mean [4, 5]: 47.4% | TNFRSF9 in culture medium, % Mean [4, 5]: 71.1% | TNFSF14 in culture medium, % Mean [4, 5]: 69.9% | TRAIL in culture medium, % Mean [4, 5]: 67.0% | TWEAK in culture medium, % Mean [4, 5]: 55.7% | VEGF-A in culture medium, % Mean [4, 5]: 82.1% | μPA in culture medium, % Mean [4, 5]: 86.3% | number of cytokines whose release was increased ([4]; n=13, FIG. 4c): two
